pIC50: −log10 of the molar value. ≈ marks a conversion by molar mass, not a printed value. Entries after “also recorded” stand apart in the source; their conditions may differ. Like-named read-outs stand apart in the source and are kept apart here. Marks after values point to notes of the source that are not given here.
Tests used:
central nervous system = assay: Neurofunctional study (FOB, motor activity) in Sprague-Dawley rat; type: in vivo; settings: male rats, 2 h after a 350 mg/kg dose
[1] = Phase 1 study in healthy subjects: pharmacokinetics (single dose, multiple dose, food effect, DDI); type: in vivo, human; settings: for AUC(0-24): mean (% CV)
[2] = test system: advanced hematologic malignancies; assay: Phase 1 dose-escalation study in advanced hematologic malignancies: clinical response; type: in vivo, human
Loucy = assay: T-ALL growth inhibition; type: cell-based, human; settings: Homo sapiens; PTEN deficient Loucy cell line
Procedure: To further explore the individual contributions of the varying PI3K isoforms on T-ALL cell growth, Loucy ALL cells were treated with doxorubicin and various PI3K inhibitors as shown in FIG. 32 at various concentrations as denoted in the figure.

PI3K δ = PI3K δ (Homo sapiens, UniProt O00329); assay: Plasma concentration for suppression of PI3K-δ (PK/PD); design: endogenous in cells; host or cells: RAJI (human Burkitt lymphoma)
U2932 = assay: DLBCL cellular growth inhibition, 72 hour CTG assay; type: cell-based; settings: Homo sapiens
OCI-LY3 = assay: DLBCL cellular growth inhibition assay; type: cell-based; settings: Homo sapiens
Procedure: Activation of the PI3K pathway is an important component of normal B-cell receptor (BCR) signaling and has been implicated in the pathogenesis of DLBCL. […] There was rapid modulation of phospho-AKT and phospho-PRAS40 by 30 minutes, whereas modulation of phospho-S6 was not detected until after 8 hours.

[3] = CLL/SLL, 16 treated, 11 evaluable
[4] = T-Cell Lymphoma, 7 treated, 6 evaluable

Sequence of PI3K δ (O00329 whole entry): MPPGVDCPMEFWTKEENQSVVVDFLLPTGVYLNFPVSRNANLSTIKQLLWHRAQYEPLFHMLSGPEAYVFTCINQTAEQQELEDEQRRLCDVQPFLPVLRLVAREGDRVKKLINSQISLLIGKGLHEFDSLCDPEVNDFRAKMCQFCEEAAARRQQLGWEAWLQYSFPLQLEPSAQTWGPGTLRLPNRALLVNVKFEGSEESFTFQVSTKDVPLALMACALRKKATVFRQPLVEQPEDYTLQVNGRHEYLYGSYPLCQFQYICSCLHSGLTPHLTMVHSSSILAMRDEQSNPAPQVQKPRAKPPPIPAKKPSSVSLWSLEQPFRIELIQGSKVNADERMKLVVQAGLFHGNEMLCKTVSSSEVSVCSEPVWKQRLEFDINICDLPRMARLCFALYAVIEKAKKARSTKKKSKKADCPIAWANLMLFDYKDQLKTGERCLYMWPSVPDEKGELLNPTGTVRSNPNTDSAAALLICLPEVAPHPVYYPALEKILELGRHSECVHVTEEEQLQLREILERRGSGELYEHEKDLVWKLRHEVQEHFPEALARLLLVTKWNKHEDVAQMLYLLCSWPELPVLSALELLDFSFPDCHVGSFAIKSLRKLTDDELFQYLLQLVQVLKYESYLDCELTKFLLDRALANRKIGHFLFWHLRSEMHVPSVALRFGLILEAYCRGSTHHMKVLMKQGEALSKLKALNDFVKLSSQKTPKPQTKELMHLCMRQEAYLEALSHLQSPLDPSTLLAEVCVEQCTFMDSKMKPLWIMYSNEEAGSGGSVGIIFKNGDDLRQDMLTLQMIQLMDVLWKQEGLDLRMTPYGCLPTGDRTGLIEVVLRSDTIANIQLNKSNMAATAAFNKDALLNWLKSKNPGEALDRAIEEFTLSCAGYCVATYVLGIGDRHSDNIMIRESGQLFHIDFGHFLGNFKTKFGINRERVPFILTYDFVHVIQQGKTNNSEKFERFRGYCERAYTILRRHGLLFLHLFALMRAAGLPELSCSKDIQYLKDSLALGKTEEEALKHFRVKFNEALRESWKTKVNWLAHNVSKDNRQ
Sequence of PI3K δ (P27986 whole entry partner): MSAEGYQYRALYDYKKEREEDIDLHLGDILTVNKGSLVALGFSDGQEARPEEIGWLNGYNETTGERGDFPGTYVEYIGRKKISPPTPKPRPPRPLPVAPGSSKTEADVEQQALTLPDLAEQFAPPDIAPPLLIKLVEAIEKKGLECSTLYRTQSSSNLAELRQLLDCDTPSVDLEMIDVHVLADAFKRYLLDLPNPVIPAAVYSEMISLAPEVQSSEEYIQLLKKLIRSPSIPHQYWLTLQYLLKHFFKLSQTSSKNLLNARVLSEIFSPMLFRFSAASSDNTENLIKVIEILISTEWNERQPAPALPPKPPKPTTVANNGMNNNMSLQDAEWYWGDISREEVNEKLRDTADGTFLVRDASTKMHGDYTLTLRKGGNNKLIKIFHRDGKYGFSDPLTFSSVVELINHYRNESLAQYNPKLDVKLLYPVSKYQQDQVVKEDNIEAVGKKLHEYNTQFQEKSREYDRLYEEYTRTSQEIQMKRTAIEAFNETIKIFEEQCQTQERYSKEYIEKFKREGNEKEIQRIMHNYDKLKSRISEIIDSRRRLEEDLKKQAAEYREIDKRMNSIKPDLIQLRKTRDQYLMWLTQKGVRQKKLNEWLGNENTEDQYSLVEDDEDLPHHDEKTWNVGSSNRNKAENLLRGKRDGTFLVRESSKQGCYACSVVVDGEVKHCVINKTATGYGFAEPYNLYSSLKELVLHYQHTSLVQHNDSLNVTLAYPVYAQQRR

C[C@H](Nc1ncnc2[nH]cnc12)c1cc2cccc(Cl)c2c(=O)n1-c1ccccc1 [Compound 292]
Any AE (25 mg BID (n = 34)): 27
Any AE, Grade 3 (25 mg BID (n = 34)): 7
Any AE, Grade 4 (25 mg BID (n = 34)): 5
New Grade 3 ALT (25 mg BID (n = 34)): 3
New Grade 3 ANC (25 mg BID (n = 34)): 2
New Grade 4 ANC (25 mg BID (n = 34)): 4
Related AE (25 mg BID (n = 34)): 18
Related Grade 3 AE (25 mg BID (n = 34)): 4/4
Related Grade 4 AE (25 mg BID (n = 34)): 4/4
new Grade >3 neutropenia (20 patients, 8-50 mg BID): 6 n
patients with AEs Grade >3 (20 patients, 8-50 mg BID): 7 patients
patients with adverse events (AEs) (20 patients, 8-50 mg BID): 13 patients
dose limiting toxicity observed to date (20 patients, 15 mg dose cohort): Grade 4 neutropenia
discontinuations due to treatment related AEs (55 patients): three
DLTs (55 patients, 8-75 mg BID): Grade 4 neutropenia (15 mg BID) and Grade 3 cellulitis (wound infection, 75 mg BID)
dose-related trends in related Grade 3 or Grade 4 AEs (55 patients, 8-75 mg BID): No dose-related trends
Any AE (Safety Population (n = 55)): 46
Any AE, Grade 3 (Safety Population (n = 55)): 18
Any AE, Grade 4 (Safety Population (n = 55)): 8
New Grade 3 ALT (Safety Population (n = 55)): 5
New Grade 3 ANC (Safety Population (n = 55)): 10
New Grade 4 ANC (Safety Population (n = 55)): 5
Related AE (Safety Population (n = 55)): 31
Related Grade 3 AE (Safety Population (n = 55)): 14
Related Grade 4 AE (Safety Population (n = 55)): 6
Deaths on Study (Safety Population (n = 55), all due to disease progression): 3 n
locomotor activity (central nervous system): Significant decreases
increase of Cmax in the presence of ketoconazole ([1]; DDI portion, 200 mg ql2h ketoconazole): approximately 66%
accumulation ([1]; following 14 days of Q12 h oral administration): less than 2 fold
dose dependence of exposure (Cmax and AUC) ([1]; healthy subjects, across the dose ranges evaluated): increased proportionally to dose; also recorded: dose-proportional pharmacokinetics
AUC(0-24) ([1]; single dose 1 mg): 149 (67) ng*hr/mL
AUC(0-24) ([1]; single dose 2 mg): 289 (43) ng*hr/mL
AUC(0-24) ([1]; single dose 5 mg): 733 (5) ng*hr/mL
AUC(0-24) ([1]; single dose 10 mg): 891 (14) ng*hr/mL
AUC(0-24) ([1]; single dose 20 mg): 2193 (16) ng*hr/mL
AUC(0-24) ([1]; single dose 30 mg): 3263 (38) ng*hr/mL
responders responding by first assessment (within about 2 months) ([2]; B cell lymphoma, 16 out of 18 responders): 89%
Best Observed Response: CR [2, 3]: 0 n
Best Observed Response: PR [2, 3]: 6 n
Time to Response, Median (range) [2, 3]: 2.9 (1.8, 5.6) Months
Best Observed Response: SD ([2]; CLL/SLL, 16 treated, 11 evaluable, four nodal responses): 4 ^c n
Best Observed Response: CR ([2]; CTCL, T/E 10/4): 0 n
Best Observed Response: SD ([2]; CTCL, T/E 10/4): 2 n
Median Time to Response (range) ([2]; CTCL, T/E 10/4): 1.7 (—) ^ Months
Best Observed Response: PR ([2]; HL, 3 treated, 2 evaluable): 0 n
Best Observed Response: SD ([2]; HL, 3 treated, 2 evaluable): 0 n
Time to Response, Median (range) ([2]; HL, 3 treated, 2 evaluable): 1.7 (1.7, 1.7) Months
Best Observed Response: CR ([2]; HL, T/E 3/3 (Table 16)): 1 (33) n(%)
Best Observed Response: Overall ([2]; HL, T/E 3/3 (Table 16)): 1 (33) n(%)
Best Observed Response: PD ([2]; HL, T/E 3/3 (Table 16)): 1 (33) n(%)
Best Observed Response: PR ([2]; HL, T/E 3/3 (Table 16)): 0 n(%)
Best Observed Response: SD ([2]; HL, T/E 3/3 (Table 16)): 1 (33) n(%)
Median Time to Rsp (Range) ([2]; HL, T/E 3/3 (Table 16)): 1.7 Months
Best Observed Response: CR ([2]; MCL, 4 treated, 3 evaluable): 0 n
Best Observed Response: PR ([2]; MCL, 4 treated, 3 evaluable): 2 n
Best Observed Response: SD ([2]; MCL, 4 treated, 3 evaluable): 0 n
Time to Response, Median (range) ([2]; MCL, 4 treated, 3 evaluable): 1.9 (1.9, 1.9) Months
responses ([2]; MCL, 11 evaluable patients, 8, 15 and 25 mg BID): 1/1
Best Observed Response: CR ([2]; MCL, T/E 9/6 (Table 16)): 1 (17) n(%)
Best Observed Response: Overall ([2]; MCL, T/E 9/6 (Table 16)): 4 (67) n(%)
Best Observed Response: PD ([2]; MCL, T/E 9/6 (Table 16)): 1 (17) n(%)
Best Observed Response: PR ([2]; MCL, T/E 9/6 (Table 16)): 3 (50) n(%)
Best Observed Response: SD ([2]; MCL, T/E 9/6 (Table 16)): 1 (17) n(%)
Median Time to Rsp (Range) ([2]; MCL, T/E 9/6 (Table 16)): 1.8 (1.6-1.9) Months
Best Observed Response: CR ([2]; MM, 3 treated, 3 evaluable): 0 n
Best Observed Response: PD ([2]; MM, 3 treated, 3 evaluable): 2 n
Best Observed Response: PR ([2]; MM, 3 treated, 3 evaluable): 0 n
Best Observed Response: PD ([2]; PTCL, T/E 7/5): 3 n
Best Observed Response: SD ([2]; PTCL, T/E 7/5): 0 n
Median Time to Response (range) ([2]; PTCL, T/E 7/5): 2.3 (1.9-2.7) Months
patients with at least 50% tumor response ([2]; T cell lymphoma (2 PTCL and 1 CTCL), CT scans): 33 % of the patients
Best Observed Response: PD [2, 4]: 3 n
Time to Response, Median (range) [2, 4]: 2.4 (1.8, 3.1) Months
Best Observed Response: PD ([2]; TCL Total, T/E 17/9 (Table 15)): 4 n
Best Observed Response: PR ([2]; TCL Total, T/E 17/9 (Table 15)): 2 n
Best Observed Response: SD ([2]; TCL Total, T/E 17/9 (Table 15)): 2 n
Median Time to Response (range) ([2]; TCL Total, T/E 17/9 (Table 15)): 1.9 (1.7-2.7) Months
Best Observed Response: CR ([2]; aNHL, 5 treated, 3 evaluable): 0 n
Best Observed Response: PD ([2]; aNHL, 5 treated, 3 evaluable): 2 n
Best Observed Response: PR ([2]; aNHL, 5 treated, 3 evaluable): 0 n
Best Observed Response: CR ([2]; aNHL, T/E 13/10 (Table 16)): 0 n(%)
Best Observed Response: Overall ([2]; aNHL, T/E 13/10 (Table 16)): 0 n(%)
Best Observed Response: PD ([2]; aNHL, T/E 13/10 (Table 16)): 6 (60) n(%)
Best Observed Response: PR ([2]; aNHL, T/E 13/10 (Table 16)): 0 n(%)
Best Observed Response: SD ([2]; aNHL, T/E 13/10 (Table 16)): 4 (40) n(%)
Best Observed Response: PR ([2]; iNHL, 17 treated, 13 evaluable): 7 n
Time to Response, Median (range) ([2]; iNHL, 17 treated, 13 evaluable): 1.8 (1.7, 2.8) Months
Best Observed Response: CR ([2]; iNHL, T/E 26/19 (Table 16)): 3 (16) n(%)
Best Observed Response: MR (Minor Response for Waldenstrom's) ([2]; iNHL, T/E 26/19 (Table 16)): 1 (5) n(%)
Best Observed Response: Overall ([2]; iNHL, T/E 26/19 (Table 16)): 13 (68) n(%)
Best Observed Response: PD ([2]; iNHL, T/E 26/19 (Table 16)): 2 (11) n(%)
Best Observed Response: PR ([2]; iNHL, T/E 26/19 (Table 16)): 10 (53) n(%)
Best Observed Response: SD ([2]; iNHL, T/E 26/19 (Table 16)): 3 (16) n(%)
Median Time to Rsp (Range) ([2]; iNHL, T/E 26/19 (Table 16)): 1.8 (1.7-4.1) Months
pIC50 (Loucy): 6.61
IC90 (PI3K δ): 0.361 µg/mL (≈ 0.866 µM)
pIC50 (U2932): < 4.30
pIC50 (OCI-LY3): < 4.30

Reference: US20160113932A1, “TREATMENT OF CANCERS USING PI3 KINASE ISOFORM MODULATORS” (INFINITY PHARMACEUTICALS, INC., priority 2013, published 2016)
